# How the values were obtained:
# quadriceps muscle = test: Microarray analysis of quadriceps (Affymetrix mouse genome 430A 2.0); type: in vivo
# [1] = test system: myoglobin, UCP3, cytochrome c (CYCS) and SCDl; test: Western blotting of oxidative biomarkers in quadriceps; type: in vivo, mouse; conditions: combined exercise and GW1516 vs either alone
# Protocol: In addition to gene expression, protein expression was determined for selective oxidative biomarkers including myoglobin, UCP3, cytochrome c (CYCS) and SCDl, using Western blotting. Protein homogenates were prepared from quadriceps muscle, separated by SDS polyacrylamide gel electrophoresis, transferred to blotting membrane and probed with antibodies specific for myoglobin (Dako), UCP3 (Affinity Bioreagents), cytochrome c (Santacruz) SCDl (Santacruz), and, as a loading control, tubulin (Sigma).
# epididymal white adipose = test: Epididymal fat to body weight ratio and H&E staining of white adipose; type: in vivo, mouse; conditions: GW1516 in combination with exercise
# Protocol: Hematoxylin and eosin (H&E) staining of white adipose tissue paraffin sections was performed as previously described (Wang et al., PLoS Biol., 2:e294, 2004; Wang et al., Cell, 113:159-70, 2003).
# [2] = test system: type I (slow oxidative) muscle fibers; test: Meta-chromatic staining of gastrocnemius fiber types; type: in vivo, mouse
# From the text: In this assay, muscle fibers with high ATPase activity {e.g., type I (slow oxidative) muscle fibers) are darkly stained.
# [3] = GW + Tr: GW1516 + exercise training, quadriceps
# [4] = GW + Tr: GW1516 + exercise training, quadriceps, listed as GW
# [5] = GW: GW1516 alone, sedentary, quadriceps, — = not regulated
compound,measurement,setting,value
"Cc1cc(SCc2sc(-c3ccc(C(F)(F)F)cc3)nc2C)ccc1OCC(=O)O [GW1516, (2-methyl-4(((4-methyl-2-(4-trifluoromethylphenyl)-1,3-thiazol-5-yl)methyl)sulfanyl)phenoxy)acetic acid]",number of genes regulated in quadriceps,quadriceps muscle; GW1516 treatment alone,96 genes
same,1810073N04Rik expression,quadriceps muscle; [3],2.326
same,2310076L09Rik expression,quadriceps muscle; [3],1.868
same,Abcb1a expression,quadriceps muscle; [3],10.322
same,Acaa2 expression,quadriceps muscle; [3],1.926
same,Acadl expression,quadriceps muscle; [3],2.549
same,Acat2 expression,quadriceps muscle; [3],1.625
same,Acly expression,quadriceps muscle; [3],2.606
same,Acp5 expression,quadriceps muscle; [3],3.91
same,Adfp (adipose differentiation related protein) expression,quadriceps muscle; [3],2.009
same,Adipoq expression,quadriceps muscle; [3],3.082
same,Adrb3 expression,quadriceps muscle; [3],3.83
same,Aldh1a7 expression,quadriceps muscle; [3],3.862
same,Angptl4 expression,quadriceps muscle; [3],5.495
same,Aplp2 expression,quadriceps muscle; [3],1.937
same,Arcn1 expression,quadriceps muscle; [3],1.617
same,Asb15 expression,quadriceps muscle; [3],1.78
same,Atf3 expression,quadriceps muscle; [3],1.802
same,BC054059 expression,quadriceps muscle; [3],5.08
same,Btg2 expression,quadriceps muscle; [3],1.601
same,C530043G21Rik expression,quadriceps muscle; [3],1.5
same,Car3 expression,quadriceps muscle; [3],2.339
same,Cat expression,quadriceps muscle; [3],1.82
same,Cd36 expression,quadriceps muscle; [3],1.584
same,Cdo1 expression,quadriceps muscle; [3],3.266
same,Cebpa expression,quadriceps muscle; [3],2.168
same,Cfd expression,quadriceps muscle; [3],2.828
same,Cidea expression,quadriceps muscle; [3],49.625
same,Cidec expression,quadriceps muscle; [3],4.771
same,Clcn5 expression,quadriceps muscle; [3],2.333
same,Cldn5 expression,quadriceps muscle; [3],1.545
same,Cpt1a expression,quadriceps muscle; [3],2.753
same,Crybb1 expression,quadriceps muscle; [3],2.457
same,Cyp2e1 expression,quadriceps muscle; [3],2.941
same,D4Wsu53e expression,quadriceps muscle; [3],1.586
same,Dbi expression,quadriceps muscle; [3],1.936
same,Dgat2 expression,quadriceps muscle; [3],2.784
same,Dnajb1 expression,quadriceps muscle; [3],3.59
same,Dusp7 expression,quadriceps muscle; [3],1.661
same,Dync1i2 expression,quadriceps muscle; [3],1.705
same,Egr1 expression,quadriceps muscle; [3],2.577
same,Fabp3 expression,quadriceps muscle; [3],1.833
same,Fabp4 expression,quadriceps muscle; [3],2.189
same,Fasn expression,quadriceps muscle; [3],6.323
same,Fbp2 expression,quadriceps muscle; [3],2.808
same,Fos expression,quadriceps muscle; [3],3.9
same,Gpam expression,quadriceps muscle; [3],2.207
same,Gpiap1 expression,quadriceps muscle; [3],1.83
same,Hba-a1 expression,quadriceps muscle; [3],1.632
same,Hbb-b2|Hbb-y expression,quadriceps muscle; [3],1.626
same,Hip1r expression,quadriceps muscle; [3],1.75
same,Hipk3 expression,quadriceps muscle; [3],1.694
same,Hp expression,quadriceps muscle; [3],1.679
same,Hsd17b12 expression,quadriceps muscle; [3],2.376
same,Hsp90aa1 expression,quadriceps muscle; [3],1.513
same,Hspa1b expression,quadriceps muscle; [3],8.845
same,Hspa9a expression,quadriceps muscle; [3],1.61
same,Ifi27 expression,quadriceps muscle; [3],1.714
same,Igf2 expression,quadriceps muscle; [3],1.635
same,Igfbp5 expression,quadriceps muscle; [3],1.772
same,Il6st expression,quadriceps muscle; [3],1.972
same,Junb expression,quadriceps muscle; [3],1.792
same,Klf3 expression,quadriceps muscle; [3],1.901
same,Ldhb expression,quadriceps muscle; [3],2.541
same,Lig3 expression,quadriceps muscle; [3],2.693
same,Lipe expression,quadriceps muscle; [3],3.032
same,Lmx1a expression,quadriceps muscle; [3],4.106
same,Lpl expression,quadriceps muscle; [3],1.659
same,Mb expression,quadriceps muscle; [3],1.578
same,Mgl1 / Mgll (monoglyceride lipase) expression,quadriceps muscle; [3],1.907
same,Mgst1 expression,quadriceps muscle; [3],1.916
same,Mlycd expression,quadriceps muscle; [3],1.781
same,Mpv17l expression,quadriceps muscle; [3],1.988
same,Mybph expression,quadriceps muscle; [3],1.578
same,Myh2 expression,quadriceps muscle; [3],2.194
same,Neurl expression,quadriceps muscle; [3],1.941
same,Nle1 expression,quadriceps muscle; [3],1.831
same,Nr1d2 expression,quadriceps muscle; [3],1.794
same,Nr4a2 expression,quadriceps muscle; [3],1.776
same,Pck1 expression,quadriceps muscle; [3],3.518
same,Pdk4 expression,quadriceps muscle; [3],2.27
same,Ppp2r1b expression,quadriceps muscle; [3],2.509
same,Ptplb expression,quadriceps muscle; [3],2.38
same,Rab5b expression,quadriceps muscle; [3],1.603
same,Rbbp4 expression,quadriceps muscle; [3],2.865
same,Rbp4 expression,quadriceps muscle; [3],2.065
same,Retn expression,quadriceps muscle; [3],4.114
same,Rpol-4 expression,quadriceps muscle; [3],2.498
same,Rragd expression,quadriceps muscle; [3],2.101
same,Rtbdn expression,quadriceps muscle; [3],2.32
same,Scd1 expression,quadriceps muscle; [3],6.494
same,Scd2 expression,quadriceps muscle; [3],1.849
same,Serpina1a expression,quadriceps muscle; [3],0.396
same,Serpinf1 expression,quadriceps muscle; [3],7.765
same,Slc1a5 expression,quadriceps muscle; [3],1.939
same,Slc25a20 expression,quadriceps muscle; [3],1.865
same,Slc27a1 expression,quadriceps muscle; [3],3.58
same,Sln expression,quadriceps muscle; [3],0.363
same,Sod3 expression,quadriceps muscle; [3],1.606
same,Surf4 expression,quadriceps muscle; [3],2.091
same,Svs5 expression,quadriceps muscle; [3],0.095
same,Tgfbr2 expression,quadriceps muscle; [3],2.13
same,Thrsp expression,quadriceps muscle; [3],2.685
same,Tkt expression,quadriceps muscle; [3],2.256
same,Tpcn1 expression,quadriceps muscle; [3],2.842
same,Trf expression,quadriceps muscle; [3],1.907
same,Trim35 expression,quadriceps muscle; [3],1.856
same,Ucp3 expression,quadriceps muscle; [3],2.943
same,Wnt7b expression,quadriceps muscle; [3],4.449
same,Ywhag expression,quadriceps muscle; [3],1.87
same,Zfp261 expression,quadriceps muscle; [3],1.847
same,erythroid differentiation regulator 1 expression,quadriceps muscle; [3],0.619
same,Acly expression,quadriceps muscle; [4],2.458
same,Cat expression,quadriceps muscle; [4],1.728
same,Hsp90aa1 expression,quadriceps muscle; [4],1.455
same,Slc25a20 expression,quadriceps muscle; [4],1.704
same,Ankrd1 expression,quadriceps muscle; [5],4.235
same,Cryab expression,quadriceps muscle; [5],1.561
same,Crygf expression,quadriceps muscle; [5],1.801
same,Dnaja4 expression,quadriceps muscle; [5],1.756
same,Hspb1 expression,quadriceps muscle; [5],1.815
same,Hspb7 expression,quadriceps muscle; [5],3.414
same,Mt1 expression,quadriceps muscle; [5],2.364
same,Mt2 expression,quadriceps muscle; [5],2.151
same,Smad3 expression,quadriceps muscle; [5],1.841
same,Tnfrsf12a expression,quadriceps muscle; [5],1.759
same,number of genes regulated in quadriceps,quadriceps muscle; combination of GW1516 and exercise,130 genes
same,"myoglobin, UCP3, cytochrome c, and SCDl protein expression",[1],robust up regulation
same,cross-sectional area of the adipocytes,epididymal white adipose,decreased
same,number of type I muscle fibers in exercised muscle,[2]; GW1516 treatment and exercise training,significantly increased
same,proportion of type I muscle fibers vs vehicle,"[2]; sedentary mice, gastrocnemius",no significant difference
same,increase in proportion of type I fibers vs vehicle-treated sedentary mice,[2]; trained mice,38%
